Data published in US7101878B1 (Agouron Pharmaceuticals, Inc., priority 1998, dated 2006).
Like-named read-outs stand apart in the source and are kept apart here.

Biological target: T1, human GnRH receptor (Homo sapiens, UniProt P30968)
T1 construct: expressed in transfected cells; host or cells: HEK 293 (hGnRH-R/293, from Dr. Stuart Sealfon)
T1 sequence (P30968 1-328): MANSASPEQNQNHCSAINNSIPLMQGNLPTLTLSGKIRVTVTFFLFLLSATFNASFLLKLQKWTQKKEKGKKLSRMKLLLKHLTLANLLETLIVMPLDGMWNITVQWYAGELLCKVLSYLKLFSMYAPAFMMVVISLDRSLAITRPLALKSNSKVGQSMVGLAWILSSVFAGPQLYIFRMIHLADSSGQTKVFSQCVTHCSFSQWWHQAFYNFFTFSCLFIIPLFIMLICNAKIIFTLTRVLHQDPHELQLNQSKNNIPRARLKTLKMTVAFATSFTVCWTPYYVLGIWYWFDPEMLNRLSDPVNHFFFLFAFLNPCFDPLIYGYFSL
Assay: Radioligand binding, 125I-GnRH-A displacement, membranes of HEK 293 cells with human GnRH receptor
Conditions: for remaining activity at 1 µM / remaining activity at 10 µM: substrate remaining, closer to zero = closer to 100% inhibition; for remaining activity at 1 µM: 1 uM compound, read-out: S%R 1 uM hGnRHR; for IC50: read-out: hGnRH IC50; for remaining activity at 10 µM: 10 uM compound, read-out: S%R 10 uM hGnRHR
Method in brief: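 Bound tracer was separated by filtration through polyethyleneimine-soaked GF/C filters and counted by liquid scintillation. IC50 from curve fitting; other species were tested under the same conditions.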

[1] = 1 uM, read-out: % Inhib. @ 1 uM hGnRH
[2] = 1 h, repeat of % Inhib. at 1 uM, read-out: Repeats @ 1 uM hGnRH

Structure (SMILES) | inhibition at 1 µM [1] | inhibition at 1 µM [2] | further results
Cc1cc2c(cc1Cc1ccc(C(=O)NCc3cccc(Br)c3)o1)C(C)(C)CCC2(C)C [Compound 454] |  |  | remaining activity at 1 µM (1 h): 36%
Cc1cnc(CNC(=O)c2ccc(Cc3ccc4c(c3)C(C)(C)CCC4(C)C)o2)cn1 [Compound 60] |  |  | IC50: 4200 nM
Cc1cc2c(cc1Cc1ccc(C(=O)Nc3cccc(CO)c3)o1)C(C)(C)CCC2(C)C [Compound 322] |  |  | remaining activity at 10 µM (1 h): 4%
Cc1cc2c(cc1Cc1ccc(C(=O)NCc3ccco3)o1)C(C)(C)CCC2(C)C [drawing 1089] | 79% | 82% | 
Cc1cc2c(cc1Cc1ccc(C(=O)NC(c3ccccc3)C(O)c3ccccc3)o1)C(C)(C)CCC2(C)C (stereo not drawn) [drawing 1073] |  |  | % Inhib. @ 1 uM hGnRH (1 uM): −11%; Repeats @ 1 uM hGnRH (repeat of % Inhib. at 1 uM): −8
Cc1cc2c(cc1Cc1ccc(C(=O)N(CCO)Cc3ccccc3)o1)C(C)(C)CCC2(C)C | -10% | -5% | 
COc1ccc(CCNC(=O)c2ccc(Cc3cc4c(cc3C)C(C)(C)CCC4(C)C)o2)cc1 [drawing 1173] | 42% | 53% | 
Cc1cc2c(cc1Cc1ccc(C(=O)N3CCN(c4ccccc4F)CC3)o1)C(C)(C)CCC2(C)C | 24% | 3% | 
Cc1cc2c(cc1Cc1ccc(C(=O)N3CCN(c4ccc(C(F)(F)F)cn4)CC3)o1)C(C)(C)CCC2(C)C | -4% | -7% | 
Cc1cc2c(cc1Cc1ccc(C(=O)NC3CC3)o1)C(C)(C)CCC2(C)C [Compound 431] |  |  | remaining activity at 1 µM (1 h): 47%
Cc1cc2c(cc1Cc1ccc(C(=O)NCc3cccc(CNc4ncnc5[nH]ccc45)c3)o1)C(C)(C)CCC2(C)C [Compound 180] |  |  | IC50: 350 nM
Cc1cc2c(cc1Cc1ccc(C(=O)NCc3ccc(F)cc3F)o1)C(C)(C)CCC2(C)C [Compound 445] |  |  | remaining activity at 1 µM (1 h): 22%
CCN(CC)CCOC(=O)c1ccc(NC(=O)c2ccc(Cc3cc4c(cc3C)C(C)(C)CCC4(C)C)o2)cc1 [Compound 135] |  |  | IC50: 1440 nM
CC(=O)c1ccc(NC(=O)c2ccc(Cc3cc4c(cc3C)C(C)(C)CCC4(C)C)o2)cc1 [Compound 396] |  |  | remaining activity at 10 µM (1 h): 55%
Cc1cc2c(cc1Cc1ccc(C(=O)Nc3ccc(O)c4ncccc34)o1)C(C)(C)CCC2(C)C [Compound 341] |  |  | remaining activity at 10 µM (1 h): 20%
Cc1cc2c(cc1Cc1ccc(C(=O)NCCCNCc3ccc(Cl)cc3)o1)C(C)(C)CCC2(C)C | -10% | -8% | 
COC(=O)c1ccc(NC(=O)c2ccc(Cc3cc4c(cc3C)C(C)(C)CCC4(C)C)o2)c(O)c1 [Compound 393] |  |  | remaining activity at 10 µM (1 h): 44%
Cc1ccc(CCNC(=O)c2ccc(Cc3cc4c(cc3C)C(C)(C)CCC4(C)C)o2)cc1 [Compound 442] |  |  | remaining activity at 1 µM (1 h): 50%
COc1cc(OC)c(NC(=O)c2ccc(Cc3cc(OC)c(O)cc3OC)o2)c(OC)c1 [Compound 227] |  |  | IC50: > 10000 nM
Cc1cc2c(cc1Cc1ccc(C(=O)Nc3ccc(O)c(Cl)c3)o1)C(C)(C)CCC2(C)C [Compound 380] |  |  | remaining activity at 10 µM (1 h): 29%
Cc1cc2c(cc1Cc1ccc(C(=O)NCCc3ccc(F)cc3)o1)C(C)(C)CCC2(C)C [Compound 446] |  |  | remaining activity at 1 µM (1 h): 55%
CCOc1cccc(O)c1NC(=O)c1ccc(Cc2cc3c(cc2C)C(C)(C)CCC3(C)C)o1 [Compound 192] |  |  | IC50: 235 nM
Cc1cc2c(cc1Cc1ccc(C(=O)N(CCC3CCCN3C)Cc3ccc(Cl)cc3)o1)C(C)(C)CCC2(C)C (stereo not drawn) | -22% | -4% | 
COC(=O)c1ccc(NC(=O)c2ccc(Cc3cc4c(cc3C)C(C)(C)CCC4(C)C)o2)cc1OC [Compound 374] |  |  | remaining activity at 10 µM (1 h): 13%

Structure (SMILES) | inhibition at 1 µM [1] | inhibition at 1 µM [2] | further results
Cc1cc2c(cc1Cc1ccc(C(=O)N3CCN(c4ncccn4)CC3)o1)C(C)(C)CCC2(C)C [drawing 1124] | -2% | 3% | 
COc1cc(OC)c(CNC(=O)c2ccc(Cc3cc4c(cc3C)C(C)(C)CCC4(C)C)o2)c(OC)c1 [Compound 172] |  |  | IC50: 3200 nM
Cc1cc(C)c2ccc(NC(=O)c3ccc(Cc4cc5c(cc4C)C(C)(C)CCC5(C)C)o3)nc2n1 [Compound 191] |  |  | IC50: 4240 nM
Cc1cc2c(cc1Cc1ccc(C(=O)NC(c3ccccc3)C(O)c3ccccc3)o1)C(C)(C)CCC2(C)C (stereo not drawn) [drawing 1072] |  |  | % Inhib. @ 1 uM hGnRH (1 uM): 56%; Repeats @ 1 uM hGnRH (repeat of % Inhib. at 1 uM): 57
Cc1cc2c(cc1Cc1ccc(C(=O)Nc3nccc(Nc4cc(C(F)(F)F)cc(C(F)(F)F)c4)n3)o1)C(C)(C)CCC2(C)C | -29% | -30% | 
COc1cc(C)c(Cl)c(C)c1Cc1ccc(C(=O)NCc2nc3ccccc3[nH]2)o1 [Compound 234] |  |  | IC50: > 10000 nM
Cc1cc2c(cc1Cc1ccc(C(=O)NCc3cc(Cl)ccc3Cl)o1)C(C)(C)CCC2(C)C | 26% | 34% | 
Cc1cc2c(cc1Cc1ccc(C(=O)N(C)Cc3ccccc3Cl)o1)C(C)(C)CCC2(C)C | 14% | 21% | 
Cc1ncc(CNC(=O)c2ccc(Cc3cc4c(cc3C)C(C)(C)CCC4(C)C)o2)c(N)n1 [Compound 163] |  |  | IC50: 1960 nM
CNC(=O)c1ccc(Cc2cc3c(cc2C)C(C)(C)CCC3(C)C)o1 [Compound 37] |  |  | IC50: 2100 nM
Cc1cc2c(cc1Cc1ccc(C(=O)NCCC3CCCN3C)o1)C(C)(C)CCC2(C)C (stereo not drawn) [drawing 977] | 40% | 49% | 
Cc1cc2c(cc1Cc1ccc(C(=O)Nc3cc(CO)ccc3C)o1)C(C)(C)CCC2(C)C [Compound 372] |  |  | remaining activity at 10 µM (1 h): 1%
COc1ccc(OC)c(NC(=O)c2ccc(Cc3cc4c(cc3C)C(C)(C)CCC4(C)C)o2)c1 [Compound 330] |  |  | remaining activity at 10 µM (1 h): 10%
Cc1cc2c(cc1Cc1ccc(C(=O)NC(CCO)c3ccccc3)o1)C(C)(C)CCC2(C)C (stereo not drawn) | 17% | 23% | 
Cc1cc2c(cc1Cc1ccc(C(=O)Nc3ccc(O)c(C)c3C)o1)C(C)(C)CCC2(C)C [Compound 376] |  |  | remaining activity at 10 µM (1 h): 50%
Cc1cc2c(cc1Cc1ccc(C(=O)Nc3ccccc3O)o1)C(C)(C)CCC2(C)C [Compound 342] |  |  | remaining activity at 10 µM (1 h): 45%
COc1cc(OC)c(NC(=O)c2ccc(Cc3c(C)c(C)c(C)c(C)c3C)o2)c(OC)c1 [Compound 197] |  |  | IC50: 1040 nM
Cc1cc2c(cc1Cc1ccc(C(=O)Nc3nccc4ccccc34)o1)C(C)(C)CCC2(C)C [Compound 356] |  |  | remaining activity at 10 µM (1 h): 17%
Cc1cc2c(cc1Cc1ccc(C(=O)NC[C@@H]3CCCO3)o1)C(C)(C)CCC2(C)C [Compound 58] |  |  | IC50: 205 nM
Cc1cc2c(cc1Cc1ccc(C(=O)N3CCN(CCN(Cc4ccccn4)C(=O)c4ccc(Cc5cc6c(cc5C)C(C)(C)CCC6(C)C)o4)CC3)o1)C(C)(C)CCC2(C)C [Compound 213] |  |  | IC50: > 10000 nM
Cc1cc2c(cc1Cc1ccc(C(=O)Nc3ccc4cn[nH]c4c3)o1)C(C)(C)CCC2(C)C [Compound 365] |  |  | remaining activity at 10 µM (1 h): 47%
Cc1cc2c(cc1Cc1ccc(C(=O)N(CCc3ccccc3)Cc3ccccc3O)o1)C(C)(C)CCC2(C)C | -20% | -30% | 
Cc1cc2c(cc1Cc1ccc(C(=O)NCc3ccc(F)c(C(F)(F)F)c3)o1)C(C)(C)CCC2(C)C | 11% | 16% | 
Cc1cc2c(cc1Cc1ccc(C(=O)NCC3CCC(C(=O)O)CC3)o1)C(C)(C)CCC2(C)C (stereo not drawn) [drawing 1024] | 66% | 76% | 

Second part, led by results:

inhibition at 1 µM [1] | inhibition at 1 µM [2] | Structure (SMILES) | further results
18% | 22% | Cc1cc2c(cc1Cc1ccc(C(=O)NCCNc3cccc(NCC4CCCO4)n3)o1)C(C)(C)CCC2(C)C (stereo not drawn) | 
-10% | 13% | COc1cc(OC)c(CNC(=O)c2ccc(Cc3cc4c(cc3C)C(C)(C)CCC4(C)C)o2)c(OC)c1 [drawing 1094] | 
-11% | -5% | CCN(Cc1cc([N+](=O)[O-])ccc1O)C(=O)c1ccc(Cc2cc3c(cc2C)C(C)(C)CCC3(C)C)o1 | 
54% | 54% | COc1cc(CNC(=O)c2ccc(Cc3cc4c(cc3C)C(C)(C)CCC4(C)C)o2)ccc1O [drawing 1222] | 
15% | 17% | Cc1cc2c(cc1Cc1ccc(C(=O)N(C)C(C)Cc3ccccc3)o1)C(C)(C)CCC2(C)C (stereo not drawn) | 
83% | 86% | Cc1cc2c(cc1Cc1ccc(C(=O)NCC(=O)Nc3ccc([N+](=O)[O-])cc3)o1)C(C)(C)CCC2(C)C [drawing 1022] | 
-2% | 6% | Cc1cc2c(cc1Cc1ccc(C(=O)NCc3c(CO)cnc(C)c3O)o1)C(C)(C)CCC2(C)C | 
61% | 71% | Cc1cc2c(cc1Cc1ccc(C(=O)NCc3cccc4ccccc34)o1)C(C)(C)CCC2(C)C [drawing 1120] | 
-6% | -7% | Cc1cc2c(cc1Cc1ccc(C(=O)NCCc3c[nH]c4ccc(OCc5ccccc5)cc34)o1)C(C)(C)CCC2(C)C | 
100% | 101% | Cc1cc2c(cc1Cc1ccc(C(=O)NCc3nc4ccccc4[nH]3)o1)C(C)(C)CCC2(C)C [drawing 1053] | 
31% | 45% | Cc1cc2c(cc1Cc1ccc(C(=O)NCCc3c[nH]c4ccc(Cl)cc34)o1)C(C)(C)CCC2(C)C [drawing 1007] | 
-6% | 14% | COc1ccc(OC)c(C(O)C(C)NC(=O)c2ccc(Cc3cc4c(cc3C)C(C)(C)CCC4(C)C)o2)c1 (stereo not drawn) | 
